Target: T1, Nav1.7 voltage-gated sodium channel (Homo sapiens, UniProt Q15858)
T1 construct: Gene(s) encoding the full-length protein of the voltage-gated sodium channel of interest are cloned and expressed; expressed in transfected cells
Assay: Whole-cell voltage clamp electrophysiology assay
Type: cell-based
Conditions: cells stably expressing the voltage-gated sodium channel of interest
Outline: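 Cells expressing full-length channel, exposed to drug by integrated pipetting on automated patch-clamp platforms or by microperfusion in conventional whole-cell patch clamp. Channels activated by a voltage protocol depolarising from a defined holding potential; buffers per platform manufacturer.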

T1 sequence (Q15858 whole entry): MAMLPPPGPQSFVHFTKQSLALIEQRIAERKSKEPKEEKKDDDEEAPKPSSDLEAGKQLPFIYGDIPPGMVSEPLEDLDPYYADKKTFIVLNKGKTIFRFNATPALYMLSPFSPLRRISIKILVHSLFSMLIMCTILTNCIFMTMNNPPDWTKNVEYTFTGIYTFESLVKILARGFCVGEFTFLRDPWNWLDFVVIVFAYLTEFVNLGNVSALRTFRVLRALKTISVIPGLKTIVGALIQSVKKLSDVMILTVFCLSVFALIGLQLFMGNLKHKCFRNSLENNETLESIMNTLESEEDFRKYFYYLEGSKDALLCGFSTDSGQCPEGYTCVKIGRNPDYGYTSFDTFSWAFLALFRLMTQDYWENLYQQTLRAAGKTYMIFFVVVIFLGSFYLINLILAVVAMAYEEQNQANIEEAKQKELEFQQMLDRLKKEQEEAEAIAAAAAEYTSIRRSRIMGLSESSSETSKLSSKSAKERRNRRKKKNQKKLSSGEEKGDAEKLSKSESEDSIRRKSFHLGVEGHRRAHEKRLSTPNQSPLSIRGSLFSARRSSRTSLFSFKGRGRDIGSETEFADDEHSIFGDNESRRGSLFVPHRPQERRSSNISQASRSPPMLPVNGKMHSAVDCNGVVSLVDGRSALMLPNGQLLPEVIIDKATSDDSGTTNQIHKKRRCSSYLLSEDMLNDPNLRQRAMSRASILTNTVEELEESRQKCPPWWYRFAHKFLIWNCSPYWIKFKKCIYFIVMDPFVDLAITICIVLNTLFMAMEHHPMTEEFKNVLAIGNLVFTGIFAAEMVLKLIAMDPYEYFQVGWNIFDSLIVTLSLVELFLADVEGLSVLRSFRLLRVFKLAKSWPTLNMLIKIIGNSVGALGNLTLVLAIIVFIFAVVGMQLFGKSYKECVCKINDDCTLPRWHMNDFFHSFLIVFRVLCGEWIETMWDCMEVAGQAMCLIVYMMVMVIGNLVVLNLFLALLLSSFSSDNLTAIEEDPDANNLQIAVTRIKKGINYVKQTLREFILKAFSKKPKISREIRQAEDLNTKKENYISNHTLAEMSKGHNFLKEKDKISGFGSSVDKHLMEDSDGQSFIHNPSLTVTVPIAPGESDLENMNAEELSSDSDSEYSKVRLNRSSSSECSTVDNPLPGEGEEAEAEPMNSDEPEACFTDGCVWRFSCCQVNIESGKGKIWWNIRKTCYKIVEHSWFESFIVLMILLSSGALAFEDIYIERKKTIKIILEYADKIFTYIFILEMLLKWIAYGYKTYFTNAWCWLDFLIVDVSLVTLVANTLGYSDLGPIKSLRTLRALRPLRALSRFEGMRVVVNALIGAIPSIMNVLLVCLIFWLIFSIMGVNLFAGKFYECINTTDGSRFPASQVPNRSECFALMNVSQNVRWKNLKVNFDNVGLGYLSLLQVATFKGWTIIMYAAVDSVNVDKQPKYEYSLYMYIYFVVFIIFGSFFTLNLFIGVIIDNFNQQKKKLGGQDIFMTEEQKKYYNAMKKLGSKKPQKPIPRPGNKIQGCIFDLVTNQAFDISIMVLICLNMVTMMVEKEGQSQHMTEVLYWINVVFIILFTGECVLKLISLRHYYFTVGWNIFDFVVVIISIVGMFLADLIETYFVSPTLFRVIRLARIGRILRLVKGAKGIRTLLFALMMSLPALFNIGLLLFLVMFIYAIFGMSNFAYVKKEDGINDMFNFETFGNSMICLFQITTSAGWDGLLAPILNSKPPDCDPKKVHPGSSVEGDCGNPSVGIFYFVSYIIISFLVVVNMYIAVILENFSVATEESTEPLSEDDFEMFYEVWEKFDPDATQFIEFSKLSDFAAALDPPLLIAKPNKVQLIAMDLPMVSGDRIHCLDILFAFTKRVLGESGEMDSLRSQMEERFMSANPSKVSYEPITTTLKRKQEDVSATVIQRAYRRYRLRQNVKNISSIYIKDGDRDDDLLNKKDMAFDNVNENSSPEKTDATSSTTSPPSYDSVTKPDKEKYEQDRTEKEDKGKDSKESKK

Compound	IC50
COc1ncc(-c2cccc3c2C[C@H](NC(=O)c2cnc(OC4CCOC4)nc2)CO3)cc1F (stereo partly drawn) [Example 149, N-[(3S)-5-(5-fluoro-6-methoxypyridin-3-yl)-3,4-dihydro-2H-chromen-3-yl]-2-(tetrahydrofuran-3-yloxy)pyrimidine-5-carboxamide]	6.31 µM
CCCCn1ccc(C(=O)N[C@@H]2COc3cccc(-c4cnc(F)c(C)c4)c3C2)cc1=O [Example 152, 1-butyl-N-[(3S)-5-(6-fluoro-5-methylpyridin-3-yl)-3,4-dihydro-2H-chromen-3-yl]-2-oxo-1,2-dihydropyridine-4-carboxamide]	1.26 µM
COc1ncc(-c2cccc3c2C[C@@H](NC(=O)c2ccc(OC4CCOCC4)nc2)CC3)cn1 [Example 154, N-[(2S)-8-(2-methoxypyrimidin-5-yl)-1,2,3,4-tetrahydronaphthalen-2-yl]-6-(tetrahydro-2H-pyran-4-yloxy)nicotinamide]	6.31 µM
Cc1ncc(-c2cccc3c2C[C@H](NC(=O)c2ccc(OC4CCOCC4)nc2)CO3)cn1 [Example 155, N-[(3S)-5-(2-methylpyrimidin-5-yl)-3,4-dihydro-2H-chromen-3-yl]-6-(tetrahydro-2H-pyran-4-yloxy)nicotinamide]	1.26 µM
COc1ncc(-c2cccc3c2C[C@H](NC(=O)c2ccc(OC4CCOCC4)nc2)CC3)cn1 [Example 156, N-[(2R)-8-(2-methoxypyrimidin-5-yl)-1,2,3,4-tetrahydronaphthalen-2-yl]-6-(tetrahydro-2H-pyran-4-yloxy)nicotinamide]	2 µM
COc1ncc(-c2cccc3c2C[C@H](NC(=O)c2ccc(OC4CCOC4)nc2)CO3)cn1 (stereo partly drawn) [Example 158, N-[(3S)-5-(2-methoxypyrimidin-5-yl)-3,4-dihydro-2H-chromen-3-yl]-6-(tetrahydrofuran-3-yloxy)nicotinamide]	3.98 µM
Cc1ncc(-c2cccc3c2C[C@H](NC(=O)c2ccc(OC4CCOC4)nc2)CC3)cn1 (stereo partly drawn) [Example 159, N-[(2R)-8-(2-methylpyrimidin-5-yl)-1,2,3,4-tetrahydronaphthalen-2-yl]-6-(tetrahydrofuran-3-yloxy)nicotinamide]	6.31 µM
Cc1ncc(-c2cccc3c2C[C@H](NC(=O)c2ccc(OC4CCCOC4)nc2)CC3)cn1 (stereo partly drawn) [Example 160, N-[(2R)-8-(2-methylpyrimidin-5-yl)-1,2,3,4-tetrahydronaphthalen-2-yl]-6-(tetrahydro-2H-pyran-3-yloxy)nicotinamide]	3.16 µM

The next compounds have a lower IC50 than those just listed; values first:

IC50	Compound
0.794 µM	CCCCn1ccc(C(=O)N[C@@H]2COc3cccc(-c4cnc(OC)c(F)c4)c3C2)cc1=O [Example 148, 1-butyl-N-[(3S)-5-(5-fluoro-6-methoxypyridin-3-yl)-3,4-dihydro-2H-chromen-3-yl]-2-oxo-1,2-dihydropyridine-4-carboxamide]
1 µM	CCCCn1ccc(C(=O)N[C@@H]2COc3cccc(-c4cnc(OC)nc4)c3C2)cc1=O [Example 150, 1-butyl-N-[(3S)-5-(2-methoxypyrimidin-5-yl)-3,4-dihydro-2H-chromen-3-yl]-2-oxo-1,2-dihydropyridine-4-carboxamide]
0.251 µM	Cc1cc(-c2cccc3c2C[C@H](NC(=O)c2ccc(OC4CCCOC4)nc2)CO3)cnc1F (stereo partly drawn) [Example 151, N-[(3S)-5-(6-fluoro-5-methylpyridin-3-yl)-3,4-dihydro-2H-chromen-3-yl]-6-(tetrahydro-2H-pyran-3-yloxy)nicotinamide]
0.631 µM	Cc1cc(-c2cccc3c2C[C@H](NC(=O)c2cnc(OC4CCCOC4)nc2)CO3)cnc1F (stereo partly drawn) [Example 153, N-[(3S)-5-(6-fluoro-5-methylpyridin-3-yl)-3,4-dihydro-2H-chromen-3-yl]-2-(tetrahydro-2H-pyran-3-yloxy)pyrimidine-5-carboxamide]
1 µM	COc1ncc(-c2cccc3c2C[C@H](NC(=O)c2ccc(OC4CCCOC4)nc2)CO3)cn1 (stereo partly drawn) [Example 157, N-[(3S)-5-(2-methoxypyrimidin-5-yl)-3,4-dihydro-2H-chromen-3-yl]-6-(tetrahydro-2H-pyran-3-yloxy)nicotinamide]

From patent US8143408B2, “N-(8-heteroaryltetrahydronaphtalene-2yl) or N-(5-heteroarylchromane-3-yl) carboxamide derivatives for the treatment of pain” (AstraZeneca AB, priority 2007, dated 2012)
